Here are results for 23 compounds from patent publication US8889878B2, “Haloalky-substituted amides as insecticides and acaricides” (Bayer CropScience AG, priority 2009, dated 2014).

In series [1] the test system is mustard beetle (Phaedon cochleariae). The series is described as follows: Phaedon test (PHAECO spray treatment), Example 16. The format is in vivo. The settings on record: china cabbage leaf discs sprayed, after the desired time; for efficacy in % / pest or weed control at 500 g/ha: application rate 500 g/ha. As for the experimental part: Phaedon Test (PHAECO Spray Treatment)
(§1) • Solvent: 78.0 parts by weight of acetone • 1.5 parts by weight of dimethylformamide • Emulsifier: 0.5 part by weight of alkylaryl polyglycol ether
To prepare an appropriate active ingredient formulation, 1 part by weight of active ingredient is mixed with the stated amounts of solvent and emulsifier, and the concentrate is diluted with emulsifier-containing water to the desired concentration. […]
After the desired time, the efficacy in % is determined. 100% means that all beetle larvae were killed; 0% means that no beetle larvae were killed.

Series [2] in a line: logP by HPLC on reverse-phase column (EEC Directive 79/831 Annex V.A8). The format is physicochemical. Particulars: for chromatographic logP: reverse-phase C18 HPLC column, pH 2.7, HPLC. As for the experimental part:
The logP values reported in the above Tables and Preparation Examples were determined according to EEC Directive 79/831 Annex V.A8 by HPLC (High Performance Liquid Chromatography) on a reverse-phase column (C18). Temperature 43° C.

Series [3] relates to armyworm (Spodoptera frugiperda). The series is described as follows: Spodoptera frugiperda test (SPODFR spray treatment), Example 15. The format is in vivo. Particulars: application rate 500 g/ha, maize leaf discs sprayed, after 7 days; for pest or weed control at 500 g/ha: Spodoptera frugiperda, foliar, 168 h, read-out: efficacy in %. Put shortly: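 Maize leaf discs sprayed with active ingredient in acetone/DMF with alkylaryl polyglycol ether emulsifier, diluted in water, then populated with caterpillars after drying. Efficacy in % after 7 days: 100% all caterpillars killed, 0% none.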

Series [4] concerns red spider mite (Tetranychus urticae). Nature of the series: Tetranychus test, OP-resistant (TETRUR spray treatment), Example 8. The format is in vivo. Particulars: application rate 20 g/ha, common bean leaf discs sprayed, after 6 days. The procedure:
Tetranychus Test, OP-resistant (TETRUR Spray Treatment)
as §1
To prepare an active ingredient formulation, 1 part by weight of active ingredient is mixed with the stated amounts of solvent and emulsifier, and the concentrate is diluted with emulsifier-containing water to the desired concentration.
Leaf discs from the common bean (Phaseolus vulgaris) infested by all stages of the red spider mite (Tetranychus urticae) are sprayed with an active ingredient formulation of the desired concentration.
After 6 days, the efficacy in % is determined. 100% means that all spider mites were killed; 0% means that no spider mites were killed.

In series [5] the test system is mustard beetle (Phaedon cochleariae). The series is described as follows: Phaedon test (PHAECO spray treatment), Example 7. The format is in vivo. Particulars: application rate 20 g/ha, china cabbage leaf discs sprayed, after 7 days. Summed up: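 Spray formulation (acetone/DMF with alkylaryl polyglycol ether, diluted in emulsifier-containing water) applied to Chinese cabbage leaf discs, which were dried and then stocked with mustard beetle larvae. Efficacy scored at 7 days as % larvae killed (100% all, 0% none).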

Series [6] has as its system green peach aphid (Myzus persicae). The series is described as follows: Myzus test (MYZUPE spray treatment), Example 17. The settings on record: application rate 500 g/ha, china cabbage leaf discs sprayed, after 6 days. The format is in vivo. As for the experimental part: Myzus Test (MYZUPE Spray Treatment)
• Solvent: 78 parts by weight of acetone • 1.5 parts by weight of dimethylformamide • Emulsifier: 0.5 part by weight of alkylaryl polyglycol ether
To prepare an appropriate active ingredient formulation, 1 part by weight of active ingredient is mixed with the stated amounts of solvent and emulsifier, and the concentrate is diluted with emulsifier-containing water to the desired concentration. Leaf discs from china cabbage (Brassica pekinensis) infested by all stages of the green peach aphid (Myzus persicae) are sprayed with an active ingredient formulation of the desired concentration.
After 6 days, the efficacy in % is determined. 100% means that all aphids were killed; 0% means that no aphids were killed.

In a further series the test system is Boophilus microplus. The series is described as follows: Boophilus microplus test (BOOPMI injection), Example 11. The format is in vivo. The settings on record: application rate 20 μg/animal, injected into abdomen, after 7 days. Summed up:
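Adult ticks injected in the abdomen with compound diluted in DMSO, then held in a climate-controlled room. Efficacy in % determined after 7 days from fertile eggs laid; 100% means no tick laid fertile eggs.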

[7] abbreviates: Phaedon cochleariae, foliar, read-out: efficacy in %.
The mark [8] stands for this setting: C18 reverse phase, 43° C., acidic range pH 2.7, calibration with alkan-2-ones.
[9] abbreviates: HPLC, C18 reverse phase, 43° C., acidic range pH 2.7, calibration with alkan-2-ones.

With `O=C(/C=C/c1ccc(NC(=O)C2CC2)cc1)NC(c1cc(Cl)cc(Cl)c1)C(F)(F)F` (stereo not shown) [Ia-1], the efficacy in % in series [1] is listed as 83%. The logP result in series [2] (HPLC-MS) is listed as “HPLC-MS: logP = 3.77; mass”.

As a reminder, the chromatographic logP is lipophilicity estimated from chromatographic retention. A high value points to higher lipophilicity. For the compound `N#Cc1cc(/C=C/C(=O)NC(c2ccc(Cl)c(Cl)c2)C(F)(F)F)ccc1-n1cncn1` (stereo not shown) [Ia-17], the pest or weed control at 500 g/ha in series [3] and in series [1] (setting [7]) was 100% throughout. Moreover, the chromatographic logP in series [2] (setting [8]) was found to be 3.22.

`Cc1cc(/C=C/C(=O)NC(c2cccc(C(F)(F)F)c2)C(F)(F)F)ccc1C(=O)O` (stereo not shown) [Ia-27] came in with an efficacy in % in series [1] of 83%. Further, the logP result in series [2] (HPLC-MS) is reported as “HPLC-MS: logP = 3.14; mass”.

For the compound `O=C(/C=C/c1ccc(C(=O)NCCOCC(F)(F)F)c(C(F)(F)F)c1)NC(c1cccc(C(F)(F)F)c1)C(F)(F)F` (stereo not shown) [Ia-47], the efficacy in % in series [3] amounted to 83%; in series [4] it was 90%; in series [5], 100%. Besides, the logP result in series [2] (HPLC-MS) is reported as “HPLC-MS: logP = 3.58; mass”.

Regarding `COC(C)(C)NC(=O)c1ccc(/C=C/C(=O)NC(c2cccc(C(F)(F)F)c2)C(F)(F)F)cc1C(F)(F)F` (stereo not shown) [Ia-55], the values for the efficacy in % in series [3], in series [6] and in series [4] were 83%, 90% and 100%, respectively. In addition, the logP entry in series [2] (HPLC-MS) is reported as “HPLC-MS: logP = 3.37; mass”.

On to `CC(NC(=O)c1ccc(/C=C/C(=O)NC(c2cccc(C(F)(F)F)c2)C(F)(F)F)cc1C(F)(F)F)C1CC1` (stereo not shown) [Ia-56], for which the efficacy in % turned out to be 83% in series [3], 100% in series [4] and 100% in series [5]. In series [2] (HPLC-MS), the logP result is “HPLC-MS: logP = 3.77; mass”.

`O=C(/C=C/c1ccc(C(=O)NC2COC2)c(C(F)(F)F)c1)NC(c1cccc(C(F)(F)F)c1)C(F)(F)F` (stereo not shown) [Ia-59]: the efficacy in % in series [3] amounted to 83%; in series [6], 100%; in series [4], 100%; in series [5] it was 100%. The logP entry in series [2] (HPLC-MS) is “HPLC MS: logP = 2.89; mass”.

As to `O=C(/C=C/c1ccc(C(=O)NC2CCC2)c(C(F)(F)F)c1)NC(c1cccc(C(F)(F)F)c1)C(F)(F)F` (stereo not shown) [Ia-61], the figures for the efficacy in % in series [6], in series [4] and in series [5] were 80%, 100% and 100%, respectively. In addition, the logP entry in series [2] (HPLC-MS) is “HPLC-MS: logP = 3.58; mass”.

Consider `CC(C)NC(=O)c1ccc(/C=C/C(=O)NC(c2cccc(C(F)(F)F)c2)C(F)(F)F)cc1C(F)(F)F` (stereo not shown) [Ia-62], for which the efficacy in % worked out at 80% in series [6], 100% in series [4] and 100% in series [5]. In addition, the logP entry in series [2] (HPLC-MS) is on record as “HPLC-MS: logP = 3.41; mass”.

For `C#CCNC(=O)c1ccc(/C=C/C(=O)NC(c2cccc(C(F)(F)F)c2)C(F)(F)F)cc1C(F)(F)F` (stereo not shown) [Ia-63], the efficacy in % in series [6] is given as 90%; in series [4] it was 80%; in series [5], 100%. The logP result in series [2] (HPLC-MS) was “HPLC-MS: logP = 3.36; mass”.

For the compound `O=C(/C=C/c1ccc(C(=O)NC2CCOCC2)c(C(F)(F)F)c1)NC(c1cccc(C(F)(F)F)c1)C(F)(F)F` (stereo not shown) [Ia-69], the efficacy in % in series [6] was 90%; in series [4], 100%; in series [5], 100%. Also, the logP result in series [2] (HPLC-MS) is recorded as “HPLC-MS: logP = 3.12; mass”.

For `O=C(/C=C/c1ccc(C(=O)NC2(c3ccccn3)CC2)c(C(F)(F)F)c1)NC(c1cccc(C(F)(F)F)c1)C(F)(F)F` (stereo not shown) [Ia-70], the efficacy in % in series [3] came out at 83%; in series [4], 100%; in series [5], 100%. Moreover, in series [2] (HPLC-MS), the logP result is given as “HPLC-MS: logP = 3.23; mass”.

Regarding `O=C(/C=C/c1ccc(C(=O)NCC2CC2)c(C(F)(F)F)c1)NC(c1cccc(C(F)(F)F)c1)C(F)(F)F` (stereo not shown) [Ia-78], the efficacy in % was 90% in series [6], 90% in series [4] and 100% in series [5]. Also, in series [2] (HPLC-MS), the logP entry is “HPLC-MS: logP = 3.52; mass”.

Regarding `CC(F)(F)CNC(=O)c1ccc(/C=C/C(=O)NC(c2cccc(C(F)(F)F)c2)C(F)(F)F)cc1C(F)(F)F` (stereo not shown) [Ia-79], the figures for the efficacy in % in series [6], in series [4] and in series [5] were 90%, 90% and 100%, respectively. Further, the logP result in series [2] (HPLC-MS) was “HPLC-MS: logP = 3.65; mass”.

For `O=C(/C=C/c1ccc(C(=O)NC2CS(=O)(=O)C2)c(Cl)c1)NC(c1cccc(C(F)(F)F)c1)C(F)(F)F` (stereo not shown) [Ia-166, 2-Chloro-N-(1,1-dioxidothietan-3-yl)-4-[(1E)-3-oxo-3-({2,2,2-trifluoro-1-[3-(trifluoromethyl)phenyl]ethyl}amino)prop-1-en-1-yl]benzamide], the pest or weed control at 100 g/ha in series [1] (Phaedon cochleariae, foliar, application rate 100 g/ha, read-out: efficacy in %) stood at 100%. The compound also returned a chromatographic logP in series [2] (setting [8]) of 2.93.

Take `O=C(/C=C/c1ccc(C(=O)NC2CC2)c(C(F)(F)F)c1)NC(c1cncc(C(F)(F)F)c1)C(F)(F)F` (stereo not shown) [Ib-3]: in series [1], the efficacy in % is recorded as 83%. Also, the logP entry in series [2] (setting [9]) is “HPLC-MS: logP = 2.83; mass (m/z):”.

As to `N#Cc1ccc2oc(C(=O)NC(c3cccc(C(F)(F)F)c3)C(F)(F)F)cc2c1` (stereo not shown) [Ic-1, 5-Cyano-N-{2,2,2-trifluoro-1-[3-(trifluoromethyl)phenyl]ethyl}-1-benzofuran-2-carboxamide], the pest or weed control at 500 g/ha in series [3] and in series [1] (setting [7]) was 100% each time. Besides, in series [2] (setting [8]), the chromatographic logP was determined as 3.63.

For the compound `O=C(NC(c1cccc(C(F)(F)F)c1)C(F)(F)F)c1cc2cc(SC(F)(F)F)ccc2o1` (stereo not shown) [Ic-2], the efficacy in % in series [1] is given as 83%. The logP entry in series [2] (setting [9]) was “HPLC-MS: logP = 4.94; mass”.

`CC(=O)NCc1ccc2oc(C(=O)NC(c3cccc(C(F)(F)F)c3)C(F)(F)F)cc2c1` (stereo not shown) [Ic-10, 5-(Acetamidomethyl)-N-{2,2,2-trifluoro-1-[3-(trifluoromethyl)phenyl]ethyl}-1-benzofuran-2-carboxamide]: in series [1] (setting [7]), the pest or weed control at 500 g/ha is 100%. In addition, the chromatographic logP in series [2] (setting [8]) stood at 2.8.

Consider `N#Cc1ccc2[nH]c(C(=O)NC(c3cc(Cl)cc(C(F)(F)F)c3)C(F)(F)F)cc2c1` (stereo not shown) [Ic-11], for which the efficacy in % in series [1] amounted to 83%. In addition, in series [2] (setting [9]), the logP result was “HPLC-MS: logP = 3.90; mass”.

As to `O=C(NC(c1cccc(C(F)(F)F)c1)C(F)(F)F)c1cc2cc(Cl)c(C(=O)NC3CC3)cc2[nH]1` (stereo not shown) [Ic-18], the efficacy in % in series [4] worked out at 80%; in series [5], 100%. Further, in the series on Boophilus microplus, the “efficacy in % (fertile eggs laid)” value was found to be 100%. Besides, the logP entry in series [2] (setting [9]) is listed as “HPLC-MS: logP = 2.98; mass”.

As to `O=C(NC1CC1)c1ccc2cc(C(=O)NC(c3cccc(C(F)(F)F)c3)C(F)(F)F)oc2c1` (stereo not shown) [Ic-19, N^6-Cyclopropyl-N^2-{2,2,2-trifluoro-1-[3-(trifluoromethyl)phenyl]ethyl}-1-benzofuran-2,6-dicarboxamide], in series [1] (setting [7]), the pest or weed control at 500 g/ha turned out to be 100%. Moreover, in series [2] (setting [8]), the chromatographic logP was determined as 3.25.

In the case of `CC(F)(F)C(NC(=O)/C=C/c1ccc(C(=O)NC2CC2)c(Cl)c1)c1cccc(C(F)(F)F)c1` (stereo not shown) [Id-1, 2-Chloro-N-cyclopropyl-4-[(1E)-3-({2,2-difluoro-1-[3-(trifluoromethyl)phenyl]propyl}amino)-3-oxoprop-1-en-1-yl]benzamide], the pest or weed control at 500 g/ha in series [1] (setting [7]) was 100%. The same compound registered a chromatographic logP in series [2] (setting [8]) of 3.04.
